Literature values in US20090285869A1, “SALT STABLE LECITHIN ORGANOGEL COMPOSITION” (Humco Holding Group, Inc., priority 2008, published 2009).

Details: non-ionic O/W and W/O emulsifiers; scale from 0 to 20

Compound	Approximate HLB value
CCCCCCCCCCCC(=O)OCC(O)CO (stereo not drawn) [Glyceryl Laurate]	~5.2
CCCCCCCC/C=C\CCCCCCCC(=O)OCC(O)CO (stereo not drawn) [Glyceryl Oleate]	~2.8
CCCCCC[C@@H](O)C/C=C\CCCCCCCC(=O)OCC(O)CO (stereo partly drawn) [Glyceryl Ricinoleate]	~2.6
CCCCCCCCCCCCCCCCCC(=O)OCC(O)CO (stereo not drawn) [Glyceryl Stearate]	~4.0
Ceteareth-6	~10.0
Ceteareth-12	~13.4
Ceteareth-20	~15.7
Ceteareth-25	~16.2
Glyceryl Dilaurate	~4.0
Oleth-5	~9.0
Oleth-10	~12.4
Oleth-20	~15.5
